In patent publication US10945995B2, “Compositions and methods for channelopathy disorders-targeting fluid movement across membranes” (DEHA, LLC, priority 2017, dated 2021):
Values belong to the compound of their own block, whether it stands above or below them.

Experiments:
[1] = test system: rat traumatic brain injury model; conditions: cited from earlier work
[2] = test system: AQP-4; conditions: rat model of epilepsy; cited from earlier work
[3] = target: T1, AQP-11 (Homo sapiens, UniProt Q8NBQ7); assay: Kinetic screening assay, cells overexpressing AQP-11; format: cell-based
T1 construct: expressed in transfected cells
T1 sequence (Q8NBQ7 1-271): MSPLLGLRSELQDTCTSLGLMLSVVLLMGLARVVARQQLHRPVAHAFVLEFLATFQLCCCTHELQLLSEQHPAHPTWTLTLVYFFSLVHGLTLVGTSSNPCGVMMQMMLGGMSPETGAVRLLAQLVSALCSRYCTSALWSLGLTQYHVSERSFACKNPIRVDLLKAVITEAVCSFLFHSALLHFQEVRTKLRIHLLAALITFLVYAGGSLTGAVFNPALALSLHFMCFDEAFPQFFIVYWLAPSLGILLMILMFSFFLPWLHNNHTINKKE

[4] = target: T2, AQP-2 (Homo sapiens, UniProt P41181); assay: Kinetic screening assay, cells overexpressing AQP-2; format: cell-based
T2 construct: expressed in transfected cells
T2 sequence (P41181 1-271): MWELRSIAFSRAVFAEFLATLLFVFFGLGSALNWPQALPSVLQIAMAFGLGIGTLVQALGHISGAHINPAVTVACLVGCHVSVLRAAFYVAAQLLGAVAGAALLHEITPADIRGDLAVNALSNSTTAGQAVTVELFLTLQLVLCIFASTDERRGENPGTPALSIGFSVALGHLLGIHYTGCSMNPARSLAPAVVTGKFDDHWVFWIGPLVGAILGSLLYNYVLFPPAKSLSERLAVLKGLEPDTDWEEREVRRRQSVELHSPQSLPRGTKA
Description: Effects of candidate AQP-4 inhibitors on cell swelling in vitro. Kinetic screening assay: In order to assess the effects of the resulting 50 compounds selected from in silico screening efforts on cell swelling, a calcein-fluorescence assay that measures plasma membrane water permeability was used. Alvarez-Leefmans et al. established a technique to estimate changes in cell volume as a function of changes in concentration using a calcein-AM, a non-fluorescent and membrane-permeant dye.^53 After entering the cell, calcein-AM is converted to calcein by removal of the acetoxymethyl group (AM) by intracellular esterases. […] The fluorescence signal is calibrated by brief exposures of the calcein-loaded cells to, for example, 15% hypotonic and 15% hypertonic solutions and the average signal intensity from the cell is detected. […] The test compounds were then added (4-9 μM) and the fluorescence was measured using a Biotek plate reader (excitation 490 nm and emission 515 nm). Relative fluorescence intensity (RfU) was calculated as the fluorescence intensity of each well divided by the mean fluorescence intensity of cells treated with DMSO (control). […]
AQP-2 DHA-35. Using the kinetic screening assay described hereinabove, cells overexpressing AQP-2 were screened with test compounds of interest and their fluorescence signal were evaluated. […]

[5] = target: T3, AQP-6 (Homo sapiens, UniProt Q13520); assay: Kinetic screening assay, cells overexpressing AQP-6; format: cell-based
T3 construct: expressed in transfected cells
T3 sequence (Q13520 1-282): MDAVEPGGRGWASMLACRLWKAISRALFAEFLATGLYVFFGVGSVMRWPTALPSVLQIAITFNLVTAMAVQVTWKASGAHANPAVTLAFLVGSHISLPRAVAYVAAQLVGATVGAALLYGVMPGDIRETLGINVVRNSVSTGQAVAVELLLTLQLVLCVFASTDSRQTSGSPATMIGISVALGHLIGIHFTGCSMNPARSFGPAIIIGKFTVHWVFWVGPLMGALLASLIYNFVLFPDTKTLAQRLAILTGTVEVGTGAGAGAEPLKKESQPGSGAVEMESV

[6] = test system: AQP-4; conditions: pre-treatment, mouse model of stroke; cited from earlier work

AQP-11 activity, fluorescence signal [3]: modulators
Compound: C=CCn1nc(C(=O)N2CCCCCC2)c2c1CCC(NCCCN1CCCC1=O)C2 (stereo not shown) [DHA-6]

AQP-2 activity, fluorescence signal [4]: inhibitor
Compound: CSc1ccc(C(=O)NC(c2ccc3c(c2)CCO3)[C@H]2C[C@@H](O)C2)cc1 (stereo partly shown) [DHA-35]

AQP-6 activity, fluorescence signal [5]: inhibitor
Compound: COCC(C)n1c(CCCC(=O)N2CCC3(CC2)CNC(=O)C3)nc2cccnc21 (stereo not shown) [DHA-36]

The next lines start with the compound.

Compound: CC(=O)Nc1nnc(S(N)(=O)=O)s1 [Acetazolamide, acetazolamide]
edema [1]: reduce edema
AQP-4 inhibition in vivo [2]: inhibit AQP-4

Compound: Cc1onc(-c2ccccc2)c1C(=O)NCc1nnc(SCc2ccccc2Cl)n1CC(C)C [DHA-37]
AQP-11 activity, fluorescence signal [3]: modulators

Compound: O=C(Nc1nncs1)c1cccnc1 [TGN-020, 2-(nicotinamide)-1,3,4-thiadiazole]
edema and infarct size [6]: reduce edema and infarct size
